In patent US8258149B2, “Isoquinoline derivatives” (Hoffmann-La Roche Inc., priority 2009, dated 2012) one finds fold induction data, which are given here for 28 molecules.

The experiment relates to L6 myotubes. Briefly: Glucose uptake (2-deoxy-D-[3H]glucose) in L6 myotubes, effectiveness in muscular glucose utilization. In kind it is cell-based. The settings on record: Rattus norvegicus, L6 myotubes treated with compound 2 hours. The procedure:
L6 myoblasts were cultured in DMEM supplemented with 10% FBS. Confluent cells were differentiated to myotubes by culturing with DMEM supplemented with 2% FBS for 6 days. L6 myotubes were treated with compounds for 2 hours. Glucose uptake was performed in 16 h serum-starved cells. Cells were washed with PBS and incubated in Krebs-Ringer phosphate-HEPES buffer containing 0.1% BSA with or without 100 nmol/l insulin. Then, cells were incubated with 0.05 mmol/l 2-deoxy-D-glucose and 0.5 μCi 2-deoxy-D-[1,2-^3H]glucose for 10 min. The assay was terminated by washing the cells three times with ice-cold PBS. Cells were solubilised with 0.1% triton X-100 and radioactivity was determined by liquid scintillation counting. Total cellular protein concentration was measured by the Bradford method. Glucose uptake was performed in duplicate. The compounds were tested at concentrations of 1 uM and 3 uM. In this test, the compounds of formula (I) induce a glucose uptake activity between 1 and 2 fold the glucose uptake activity of the vehicle. Some particularly preferred compounds of formula (I) induce a glucose uptake activity between 1.2 and 2 fold the glucose uptake of the vehicle. Other particularly preferred compounds of formula (I) induce a glucose uptake activity between 1.4 and 2 fold the glucose uptake activity of the vehicle.

`COc1ccc2c(c1OC)C(c1ccccc1)N1CCc3cc4c(cc3C1=C2)OCO4` (centres unmarked) [Example 1, 9,10-Dimethoxy-8-phenyl-5,8-dihydro-6H-[1,3]dioxolo[4,5-g]isoquino[3,2-a]isoquinoline]: the fold induction at 1 µM was determined as 1.32 and the fold induction at 3 µM came out at 1.3. Consider `COc1ccc2c(c1OC)C1(CCCC1)N1CCc3cc4c(cc3C1C2)OCO4` (centres unmarked) [Example 2, 9′,10′-Dimethoxy-5′,6′,13′,13a′-tetrahydrospiro[cyclopentane-1,8′-[1,3]dioxolo[4,5-g]isoquino[3,2-a]isoquinoline]], for which the fold induction at 1 µM worked out at 1.11 and the fold induction at 3 µM stood at 1.07. The corresponding values for `C=CC1c2c(ccc(OC)c2OC)C=C2c3cc4c(cc3CCN21)OCO4` (centres unmarked) [Example 3, 9,10-Dimethoxy-8-vinyl-5,8-dihydro-6H-[1,3]dioxolo[4,5-g]isoquino[3,2-a]isoquinoline] are 1.16 and 1.11. Taken in the same sequence, the figures for `C=C(C)C1c2c(ccc(OC)c2OC)C=C2c3cc4c(cc3CCN21)OCO4` (centres unmarked) [Example 4, 8-Isopropenyl-9,10-dimethoxy-5,8-dihydro-6H-[1,3]dioxolo[4,5-g]isoquino[3,2-a]isoquinoline] were 1.86 and 1.46. For `C#CC1c2c(ccc(OC)c2OC)C=C2c3cc4c(cc3CCN21)OCO4` (centres unmarked) [Example 5, 8-Ethynyl-9,10-dimethoxy-5,8-dihydro-6H-[1,3]dioxolo[4,5-g]isoquino[3,2-a]isoquinoline], the fold induction at 3 µM turned out to be 1.15.

For the molecule `C=CCC1c2c(ccc(OC)c2OC)C=C2c3cc4c(cc3CCN21)OCO4` (centres unmarked) [Example 6, 8-Allyl-9,10-dimethoxy-5,8-dihydro-6H-[1,3]dioxolo[4,5-g]isoquino[3,2-a]isoquinoline], the fold induction at 3 µM turned out to be 1.07. As for `CC#CC1c2c(ccc(OC)c2OC)C=C2c3cc4c(cc3CCN21)OCO4` (centres unmarked) [Example 7, 9,10-Dimethoxy-8-prop-1-ynyl-5,8-dihydro-6H-[1,3]dioxolo[4,5-g]isoquino[3,2-a]isoquinoline], the fold induction at 1 µM was determined as 1.58 and the fold induction at 3 µM worked out at 1.68. On to `C=C(C)C1c2c(ccc(OC)c2OC)C(C)=C2c3cc4c(cc3CCN21)OCO4` (centres unmarked) [Example 8, 8-Isopropenyl-9,10-dimethoxy-13-methyl-5,8-dihydro-6H-[1,3]dioxolo[4,5-g]isoquino[3,2-a]isoquinoline], for which the fold induction at 1 µM was determined as 1.2 and the fold induction at 3 µM stood at 1.35. Regarding `CC#CC1c2c(ccc(OC)c2OC)C(C)=C2c3cc4c(cc3CCN21)OCO4` (centres unmarked) [Example 9, 9,10-Dimethoxy-13-methyl-8-prop-1-ynyl-5,8-dihydro-6H-[1,3]dioxolo[4,5-g]isoquino[3,2-a]isoquinoline], the fold induction at 1 µM was found to be 1.63 and the fold induction at 3 µM worked out at 0.99. The corresponding values for `C=C(C)C1c2c(ccc(OC)c2OC)C(CC)=C2c3cc4c(cc3CCN21)OCO4` (centres unmarked) [Example 10, 13-Ethyl-8-isopropenyl-9,10-dimethoxy-5,8-dihydro-6H-[1,3]dioxolo[4,5-g]isoquino[3,2-a]isoquinoline] are 1.05 and 1.22. For `C=CCC1c2c(ccc(OC)c2OC)C(CC)=C2c3cc4c(cc3CCN21)OCO4` (centres unmarked) [Example 11, 8-Allyl-13-ethyl-9,10-dimethoxy-5,8-dihydro-6H-[1,3]dioxolo[4,5-g]isoquino[3,2-a]isoquinoline], the fold induction at 1 µM came out at 1.15. For the molecule `CC#CC1c2c(ccc(OC)c2OC)C(CC)=C2c3cc4c(cc3CCN21)OCO4` (centres unmarked) [Example 12, 13-Ethyl-9,10-dimethoxy-8-prop-1-ynyl-5,8-dihydro-6H-[1,3]dioxolo[4,5-g]isoquino[3,2-a]isoquinoline], the fold induction at 1 µM was 1.59 and the fold induction at 3 µM was 1.22. Take `C=CCC1=C2c3cc4c(cc3CCN2C(C(=C)C)c2c1ccc(OC)c2OC)OCO4` (centres unmarked) [Example 13, 13-Allyl-8-isopropenyl-9,10-dimethoxy-5,8-dihydro-6H-[1,3]dioxolo[4,5-g]isoquino[3,2-a]isoquinoline]: the fold induction at 1 µM was 0.94 and the fold induction at 3 µM is 1.05. The corresponding values for `COc1ccc2c(c1OC)C(C)(C)N1CCc3cc4c(cc3C1=C2C)OCO4` [Example 14, 9,10-Dimethoxy-8,8,13-trimethyl-5,8-dihydro-6H-[1,3]dioxolo[4,5-g]isoquino[3,2-a]isoquinoline] are 1.21 and 1.18.

For the molecule `CCC1(CC)c2c(ccc(OC)c2OC)C(C)=C2c3cc4c(cc3CCN21)OCO4` [Example 15, 8,8-Diethyl-9,10-dimethoxy-13-methyl-5,8-dihydro-6H-[1,3]dioxolo[4,5-g]isoquino[3,2-a]isoquinoline], the fold induction at 1 µM amounted to 1.22 and the fold induction at 3 µM turned out to be 1.14. Turning to `CCC1=C2c3cc4c(cc3CCN2C(C)(C)c2c1ccc(OC)c2OC)OCO4` [Example 16, 13-Ethyl-9,10-dimethoxy-8,8-dimethyl-5,8-dihydro-6H-[1,3]dioxolo[4,5-g]isoquino[3,2-a]isoquinoline], the fold induction at 1 µM turned out to be 1.25 and the fold induction at 3 µM was 0.91. On to `C=CCC1(CC=C)c2c(ccc(OC)c2OC)C=C2c3cc4c(cc3CCN21)OCO4` [Example 17, 8,8-Diallyl-9,10-dimethoxy-5,8-dihydro-6H-[1,3]dioxolo[4,5-g]isoquino[3,2-a]isoquinoline], for which the fold induction at 1 µM was determined as 1.34 and the fold induction at 3 µM worked out at 1.04. Consider `COc1ccc2c(c1OC)C(C)(C)N1CCc3cc4c(cc3C1=C2Cc1ccccc1)OCO4` [Example 18, 13-Benzyl-9,10-dimethoxy-8,8-dimethyl-5,8-dihydro-6H-[1,3]dioxolo[4,5-g]isoquino[3,2-a]isoquinoline], for which the fold induction at 1 µM is 1.19 and the fold induction at 3 µM was 1.05. For `COc1cc(Cl)c2c(c1OC)C(C)(C)N1CCc3cc4c(cc3C1=C2)OCO4` [Example 19, 12-Chloro-9,10-dimethoxy-8,8-dimethyl-5,8-dihydro-6H-[1,3]dioxolo[4,5-g]isoquino[3,2-a]isoquinoline], the fold induction at 1 µM amounted to 1.25 and the fold induction at 3 µM was 1.24.

With `COc1ccc2c(c1OC)C1(CCCC1)N1CCc3cc4c(cc3C1=C2)OCO4` [Example 20, 9′,10′-Dimethoxy-5′,6′-dihydrospiro[cyclopentane-1,8′-[1,3]dioxolo[4,5-g]isoquino[3,2-a]isoquinoline]], the fold induction at 1 µM is 1.2 and the fold induction at 3 µM was determined as 1.18. The corresponding values for `COc1ccc2c(c1OC)C(C)(C)N1CCc3cc4c(cc3C1C2)OCO4` (centres unmarked) [Example 21, 9,10-Dimethoxy-8,8-dimethyl-5,8,13,13a-tetrahydro-6H-[1,3]dioxolo[4,5-g]isoquino[3,2-a]isoquinoline] are 1.22 and 1.14. Take `COc1ccc2c(c1OC)C(C)(C)N1CCc3cc4c(cc3C1C2C)OCO4` (centres unmarked) [Example 22, 9,10-Dimethoxy-8,8,13-trimethyl-5,8,13,13a-tetrahydro-6H-[1,3]dioxolo[4,5-g]isoquino[3,2-a]isoquinoline]: the fold induction at 1 µM amounted to 1.38 and the fold induction at 3 µM came out at 1.46. Taken in the same sequence, the figures for `CCC1(CC)c2c(ccc(OC)c2OC)C(C)C2c3cc4c(cc3CCN21)OCO4` (centres unmarked) [Example 23, 8,8-Diethyl-9,10-dimethoxy-13-methyl-5,8,13,13a-tetrahydro-6H-[1,3]dioxolo[4,5-g]isoquino[3,2-a]isoquinoline] were 1.1 and 1.14. For the molecule `COc1ccc2c(c1OC)C(C)(C)N1CCc3cc4c(cc3C1C2Cc1ccccn1)OCO4` (centres unmarked) [Example 24, 9,10-Dimethoxy-8,8-dimethyl-13-pyridin-2-ylmethyl-5,8,13,13a-tetrahydro-6H-[1,3]dioxolo[4,5-g]isoquino[3,2-a]isoquinoline], the fold induction at 1 µM came to 1.11 and the fold induction at 3 µM was 1.03. For `COc1ccc2c(c1OC)C(C)(C)N1CCc3cc4c(cc3C1C2Cc1ccccc1)OCO4` (centres unmarked) [Example 25, 13-Benzyl-9,10-dimethoxy-8,8-dimethyl-5,8,13,13a-tetrahydro-6H-[1,3]dioxolo[4,5-g]isoquino[3,2-a]isoquinoline], the fold induction at 1 µM is 1.13 and the fold induction at 3 µM was 1.02. Taken in the same sequence, the figures for `COc1ccc2c(c1OC)C1(CC=CC1)N1CCc3cc4c(cc3C1C2)OCO4` (centres unmarked) [Example 26, 9′,10′-Dimethoxy-5′,6′,13′,13a′-tetrahydrospiro[cyclopent-3-ene-1,8′-[1,3]dioxolo[4,5-g]isoquino[3,2-a]isoquinoline]] were 1.12 and 1.11. The corresponding values for `COc1ccc2c(c1OC)C(C)(C)N1CCc3cc4c(cc3C1=C2)OCO4` [Example 27, 9,10-Dimethoxy-8,8-dimethyl-5,8-dihydro-6H-[1,3]dioxolo[4,5-g]isoquino[3,2-a]isoquinoline] are 1.62 and 1.65. Take `CCC1(CC)c2c(ccc(OC)c2OC)C=C2c3cc4c(cc3CCN21)OCO4` [Example 28, 8,8-Diethyl 9,10-dimethoxy-5,8-dihydro-6H-[1,3]dioxolo[4,5-g]isoquino[3,2-a]isoquinoline]: the fold induction at 1 µM stood at 1.47 and the fold induction at 3 µM was 1.12.

In general, fold induction refers to the signal under treatment as a multiple of the control signal.
